Measurements from patent publication US4464385A, “Treatment of diabetic complications with hydantoins” (Alcon Laboratories, Inc., priority 1982, dated 1984).
“Also recorded” adds a separate entry of the source.

Tested on: cataracts in rats
Assay: Prevention or retardation of cataracts in galactose-fed rats
Assay type: in vivo, rat
Conditions: for suppression of the formation of nuclear cataracts: 30 days; for % of Total Eyes, + (vacuole) / % of Total Eyes, - (Normal) / % of Total Eyes, N (nuclear cataract) / % of Total Eyes, S (snowflake) / Number of Eyes Observed, + (vacuole) / Number of Eyes Observed, - (Normal) / Number of Eyes Observed, N (nuclear cataract) / Number of Eyes Observed, S (snowflake) / Number of Eyes Observed, ±: 30% galactose diet, A,C,E 0.0025%, B,D 0.01%
Outline: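 Twelve rats per treatment, after two days on chow, were fed compound/diet mixtures ad libitum from Study Day 1 for thirty days; the 0.01% level was designed for 20 mg/kg/day. Cataracts were scored per eye using ophthalmoscope and/or penlight.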

dl-spiro-(6-methylthio-chroman-4,4'-imidazolidine)-2',5'-dione
suppression of the formation of nuclear cataracts (0.0025% in diet): greater than 80% | time of suppression, time to vacuole formation (0.01% in diet): 13.5 days | time to snowflake / retardation of cataract, versus Sarges 0.0025% d-6-fluoro (0.01% in diet): not significantly different from the Sarges 0.0025% d-6-fluoro control; also recorded: retard the progress of cataract formation slightly better than the Sarges control; also recorded: surpassed the positive control | time to vacuole formation, versus Sarges 0.0025% d-6-fluoro (0.01% in diet): statistically lower (p<0.05) than the Sarges standard | suppression of the formation of nuclear cataracts (0.01% in diet): 100% | % of Total Eyes, + (vacuole) (Study Day 2): 0% | % of Total Eyes, - (Normal) (Study Day 2): 100.0% | % of Total Eyes, N (nuclear cataract) (Study Day 2): 0% | % of Total Eyes, S (snowflake) (Study Day 2): 0% | Number of Eyes Observed, + (vacuole) (Study Day 2): 0 eyes | Number of Eyes Observed, - (Normal) (Study Day 2): 24 eyes | Number of Eyes Observed, N (nuclear cataract) (Study Day 2): 0 eyes | Number of Eyes Observed, S (snowflake) (Study Day 2): 0 eyes | Number of Eyes Observed, ± (Study Day 2): 0 eyes | % of Total Eyes, + (vacuole) (Study Day 3): 0% | % of Total Eyes, - (Normal) (Study Day 3): 100.0% | % of Total Eyes, N (nuclear cataract) (Study Day 3): 0% | % of Total Eyes, S (snowflake) (Study Day 3): 0% | Number of Eyes Observed, + (vacuole) (Study Day 3): 0 eyes | Number of Eyes Observed, - (Normal) (Study Day 3): 24 eyes | Number of Eyes Observed, N (nuclear cataract) (Study Day 3): 0 eyes | Number of Eyes Observed, S (snowflake) (Study Day 3): 0 eyes | Number of Eyes Observed, ± (Study Day 3): 0 eyes | % of Total Eyes, + (vacuole) (Study Day 4): 0% | % of Total Eyes, - (Normal) (Study Day 4): 16.7% | % of Total Eyes, N (nuclear cataract) (Study Day 4): 0% | % of Total Eyes, S (snowflake) (Study Day 4): 0% | Number of Eyes Observed, + (vacuole) (Study Day 4): 0 eyes | Number of Eyes Observed, - (Normal) (Study Day 4): 4 eyes | Number of Eyes Observed, N (nuclear cataract) (Study Day 4): 0 eyes | Number of Eyes Observed, S (snowflake) (Study Day 4): 0 eyes | Number of Eyes Observed, ± (Study Day 4): 20 eyes | % of Total Eyes, + (vacuole) (Study Day 5): 75.0% | % of Total Eyes, - (Normal) (Study Day 5): 0% | % of Total Eyes, N (nuclear cataract) (Study Day 5): 0% | % of Total Eyes, S (snowflake) (Study Day 5): 0% | Number of Eyes Observed, + (vacuole) (Study Day 5): 18 eyes | Number of Eyes Observed, - (Normal) (Study Day 5): 0 eyes | Number of Eyes Observed, N (nuclear cataract) (Study Day 5): 0 eyes | Number of Eyes Observed, S (snowflake) (Study Day 5): 0 eyes | Number of Eyes Observed, ± (Study Day 5): 6 eyes | % of Total Eyes, + (vacuole) (Study Day 6): 83.3% | % of Total Eyes, - (Normal) (Study Day 6): 0% | % of Total Eyes, N (nuclear cataract) (Study Day 6): 0% | % of Total Eyes, S (snowflake) (Study Day 6): 0% | Number of Eyes Observed, + (vacuole) (Study Day 6): 20 eyes | Number of Eyes Observed, - (Normal) (Study Day 6): 0 eyes | Number of Eyes Observed, N (nuclear cataract) (Study Day 6): 0 eyes | Number of Eyes Observed, S (snowflake) (Study Day 6): 0 eyes | Number of Eyes Observed, ± (Study Day 6): 4 eyes | % of Total Eyes, + (vacuole) (Study Day 8): 100.0% | % of Total Eyes, - (Normal) (Study Day 8): 0% | % of Total Eyes, N (nuclear cataract) (Study Day 8): 0% | % of Total Eyes, S (snowflake) (Study Day 8): 0% | Number of Eyes Observed, + (vacuole) (Study Day 8): 24 eyes | Number of Eyes Observed, - (Normal) (Study Day 8): 0 eyes | Number of Eyes Observed, N (nuclear cataract) (Study Day 8): 0 eyes | Number of Eyes Observed, S (snowflake) (Study Day 8): 0 eyes | Number of Eyes Observed, ± (Study Day 8): 0 eyes | % of Total Eyes, + (vacuole) (Study Day 10): 79.2% | % of Total Eyes, - (Normal) (Study Day 10): 0% | % of Total Eyes, N (nuclear cataract) (Study Day 10): 0% | % of Total Eyes, S (snowflake) (Study Day 10): 20.8% | Number of Eyes Observed, + (vacuole) (Study Day 10): 19 eyes | Number of Eyes Observed, - (Normal) (Study Day 10): 0 eyes | Number of Eyes Observed, N (nuclear cataract) (Study Day 10): 0 eyes | Number of Eyes Observed, S (snowflake) (Study Day 10): 5 eyes | Number of Eyes Observed, ± (Study Day 10): 0 eyes | % of Total Eyes, + (vacuole) (Study Day 12): 58.4% | % of Total Eyes, - (Normal) (Study Day 12): 0% | % of Total Eyes, N (nuclear cataract) (Study Day 12): 0% | % of Total Eyes, S (snowflake) (Study Day 12): 41.6% | Number of Eyes Observed, + (vacuole) (Study Day 12): 14 eyes | Number of Eyes Observed, - (Normal) (Study Day 12): 0 eyes | Number of Eyes Observed, N (nuclear cataract) (Study Day 12): 0 eyes | Number of Eyes Observed, S (snowflake) (Study Day 12): 10 eyes | Number of Eyes Observed, ± (Study Day 12): 0 eyes | % of Total Eyes, + (vacuole) (Study Day 14): 41.6% | % of Total Eyes, - (Normal) (Study Day 14): 0% | % of Total Eyes, N (nuclear cataract) (Study Day 14): 0%
